# Test results: the Deep4Chem optical property database
# Assay: solvent given as SMILES
compound,measurement,setting,value
Cc1ccc2c(c1)c1cc(Br)ccc1n2-c1c(C#N)c(-n2c3ccc(Br)cc3c3cc(Br)ccc32)c(-n2c3ccc(Br)cc3c3cc(Br)ccc32)c(C#N)c1-n1c2ccc(Br)cc2c2cc(Br)ccc21,absorption maximum,in Cc1ccccc1,339 nm
COc1cc(/C=C2\C=C(c3ccccc3)C=C2c2ccccc2)cc(OC)c1,absorption maximum,in C1CCOC1,436 nm
N#Cc1c(N2CCCCC2)cc(-c2ccc3c(c2)OCO3)c2c1-c1cccc3cccc-2c13,absorption maximum,in O,429 nm
CC1(C)c2ccccc2N(c2ccc3c(c2)S(=O)(=O)c2cc(N4c5ccccc5C(C)(C)c5ccccc54)ccc2C3(C)C)c2ccccc21,absorption maximum,in ClCCl,282 nm
CNc1ccc2c(c1)-c1ccccc1C2=O,absorption maximum,in C1CCCCC1,389 nm
same,absorption maximum,in CC#N,424 nm
same,absorption maximum,in CCO,436 nm
same,absorption maximum,in c1ccccc1,409 nm
CCCCn1c(=O)c2cc3ccc4cccc5ccc(c2c1=O)c3c45,absorption maximum,in ClC(Cl)Cl,427 nm
C(=N\c1ccc(-c2cn3nc(-c4cccs4)sc3n2)cc1)/c1ccc2ccc3cccc4ccc1c2c34,absorption maximum,in ClC(Cl)Cl,403 nm
Nc1ccc2nc3c4ccccc4c(=[NH2+])cc-3oc2c1,absorption maximum,in CCO,600 nm
FC(F)(F)c1ccc(-c2c3cccc4c5cccc6c(-c7ccc(C(F)(F)F)cc7)c7cccc8c9cccc2c9c(c34)c(c65)c78)cc1,absorption maximum,in Cc1ccccc1,683 nm
CN(C)c1ccc(C2=Cc3cc(Cl)nc[n+]3[B-](F)(F)O2)cc1,absorption maximum,in C1CCOC1,451 nm
same,absorption maximum,in CC#N,452 nm
same,absorption maximum,in CCCCCC,444 nm
same,absorption maximum,in Cc1ccccc1,453 nm
same,absorption maximum,in ClC(Cl)Cl,460 nm
same,absorption maximum,in ClCCl,459 nm
N#Cc1c(C#N)c2cc(F)ccc2c2ccc(F)cc12,absorption maximum,in ClC(Cl)Cl,335 nm
CC(C)(C)c1ccc(-c2c3c(c(-c4ccc(C(C)(C)C)cc4)c4cc5ccccc5cc24)Cc2c(c(-c4ccc(C(C)(C)C)cc4)c4cc5ccccc5cc4c2-c2ccc(C(C)(C)C)cc2)C3)cc1,absorption maximum,in ClCCl,393 nm
COc1ccc(N(c2ccccc2)c2cc3ccc4cc(N(c5ccccc5)c5ccc(OC)cc5)cc5ccc(c2)c3c45)cc1,absorption maximum,in Cc1ccccc1,453 nm
CC1=CC(C)=[N+]2C1=C(c1ccc(I)cc1)c1c(C)cc(C)n1[B-]21OCCO1,absorption maximum,in ClC(Cl)Cl,507 nm
COc1ccc(/C=C/c2ccccc2)cc1OC,absorption maximum,in CC#N,321 nm
CC(C)(C)NC(=O)c1c([Si](C)(C)C)cc2ccc3cccc4ccc1c2c34,absorption maximum,in ClC(Cl)Cl,382 nm
N#C/C(=C\c1ccc(C#N)cc1)c1nc(-c2ccccc2)cs1,absorption maximum,in CC#N,370 nm
same,absorption maximum,in CCO,375 nm
same,absorption maximum,in CN(C)C=O,376 nm
same,absorption maximum,in Cc1ccccc1,380 nm
same,absorption maximum,in ClCCl,375 nm
c1cc2oc3cccc4oc5cccc6oc(c1)c2[c+](c34)c65,absorption maximum,in CC#N,481 nm
C(=C\c1nc2ccccc2s1)/c1ccccc1,absorption maximum,in C1CCCCC1,340 nm
same,absorption maximum,in CO,340 nm
CCN(CC)c1ccc(/C=C2\CC/C(=C\c3ccc(N(c4ccccc4)c4ccccc4)cc3)C2=C(C#N)C#N)cc1,absorption maximum,in CN(C)C=O,579 nm
O=c1cc2c(-c3c(O)c4cccc5ccc6oc(=O)cc3c6c54)c(O)c3cccc4ccc(o1)c2c43,absorption maximum,in CC1CCCO1,486 nm
c1ccc(Nc2nc(Nc3ccccc3)nc(Nc3ccc4c5cccc6cccc(c7cccc3c74)c65)n2)cc1,absorption maximum,in C1COCCO1,444 nm
same,absorption maximum,in CC#N,444 nm
same,absorption maximum,in CCCCOCCCC,444 nm
same,absorption maximum,in CCOC(C)=O,443 nm
CN(C)c1ccc2c3c(c(=O)oc2c1)C=c1cc2c(cc1O3)=[N+](CCC(=O)O)CCC2,absorption maximum,in CC#N,593 nm
same,absorption maximum,in CO,591 nm
same,absorption maximum,in ClCCl,606 nm
same,absorption maximum,in O,587 nm
CCn1c2cc(C(C)(C)C)ccc2c2c3nsnc3c3c4ccc(C(C)(C)C)cc4n(CC)c3c21,absorption maximum,in CN(C)C=O,430 nm
same,absorption maximum,in Cc1ccccc1,425 nm
same,absorption maximum,in ClCCl,430 nm
c1ccc(-c2c3ccccc3c(-c3ncccn3)c3ccccc23)cc1,absorption maximum,in CCO,390 nm
same,absorption maximum,in ClCCl,393 nm
c1ccc(N(c2ccccc2)c2ccc(-c3ncc(-c4ccncc4)s3)cc2)cc1,absorption maximum,in CO,397 nm
FC(F)(F)c1ccc(/C=C/c2nc(/C=C/c3ccc(N(c4ccccc4)c4ccccc4)cc3)cc(/C=C/c3ccc(N(c4ccccc4)c4ccccc4)cc3)n2)cc1,absorption maximum,in ClCCl,430 nm
c1ccc(C2=C(c3ccccc3)c3cccc4c3c(cc3nc5c(-c6ccccc6)ccc(-c6ccccc6)c5nc34)O2)cc1,absorption maximum,in ClCCl,503 nm
COCCOCCOCCOCC(COCCOCCOCCOC)Oc1cc(/C=C/c2ccc(C=C3C(=O)c4ccccc4C3=O)cc2)c(OC(COCCOCCOCCOC)COCCOCCOCCOC)cc1/C=C/c1ccc(C=C2C(=O)c3ccccc3C2=O)cc1,absorption maximum,in ClCCl,489 nm
CN(C)c1ccc(-c2nc3nccnc3n2-c2ccc(N(C)C)cc2)cc1,absorption maximum,in CC#N,371 nm
CCc1c(C)[nH]c(C2=[N+]3C(=C(C)c4c(C)c(CC)c(C)n4[B-]3(F)F)c3ccccc32)c1C,absorption maximum,in C1CCOC1,618 nm
same,absorption maximum,in CC#N,610 nm
same,absorption maximum,in CCCCCC,620 nm
same,absorption maximum,in CO,613 nm
same,absorption maximum,in Cc1ccccc1,625 nm
same,absorption maximum,in ClCCl,619 nm
CC(C)(C)c1ccc(-c2cc3c4c(c2)CCc2cc(-c5ccc(C(C)(C)C)cc5)cc(c2-4)CC3)cc1,absorption maximum,in ClC(Cl)Cl,329.71 nm
